According to patent US4761410A, “Cephem Compounds” (Fujisawa Pharmaceutical Co., Ltd., priority 1985, dated 1988):
Values after ≈ are worked out from the molar mass of the structure shown.

Columns and labels:
[1] = system: Proteus vulgaris IAM 1025; experiment: In vitro antibacterial activity (MIC) by two-fold agar-plate dilution method, Proteus vulgaris IAM 1025; type: cell-based; settings: IAM1025, heart infusion agar, 37° C., 20 hours, read-out: MIC (minimal inhibitory concentration)
Protocol: (§1) In vitro antibacterial activity was determined by the two-fold agar-plate dilution method as described below.
(§2) One loopful of an overnight culture of each test strain in Trypticase-soy broth (10^8 viable cells per ml) was streaked on heart infusion agar HI-agar) containing graded concentrations of representative test compound, and the minimal inhibitory concentration (MIC) was expressed in terms of μg/ml after incubation at 37° C. for 20 hours.

Escherichia coli 29 = experiment: In vitro antibacterial activity (MIC) by two-fold agar-plate dilution method, Escherichia coli 29; type: cell-based; settings: heart infusion agar, 37° C., 20 hours, read-out: MIC (minimal inhibitory concentration)
Protocol: as §1, §2

| Compound | MIC [1] [µg/mL] | MIC (Escherichia coli 29) [µg/mL] |
| --- | --- | --- |
| Cc1ccc[n+](CC2=C(C(=O)[O-])N3C(=O)C(NC(=O)/C(=N\OC(F)F)c4csc(N)n4)C3SC2)c1 (stereo not drawn) [Test Compound (1), 7-[2-(2-Aminothiazol-4-yl)-2-difluoromethoxyiminoacetamido]-3-(3-methyl-1-pyridiniomethyl)-3-cephem-4-carboxylate] | ≤ 0.025 | ≤ 0.025 |
| Cc1nsc(SCC2=C(C(=O)O)N3C(=O)C(NC(=O)/C(=N\OC(F)F)c4csc(N)n4)C3SC2)n1 (stereo not drawn) [Test Compound (2), 7-[2-(2-Aminothiazol-4-yl)-2-difluoromethoxyiminoacetamido]-3-(3-methyl-1,2,4-thiadiazol-5-yl)thiomethyl-3-cephem-4-carboxylic acid] | 0.05 (≈ 0.0887 µM) | 0.2 (≈ 0.355 µM) |
| Nc1nc(/C(=N/OC(F)F)C(=O)NC2C(=O)N3C(C(=O)O)=C(CSc4ncns4)CSC23)cs1 (stereo not drawn) [Test Compound (3), 7-[2-(2-Aminothiazol-4-yl)-2-difluoromethoxyiminoacetamido]-3-(1,2,4-thiadiazol-5-yl)thiomethyl-3-cephem-4-carboxylic acid] | ≤ 0.025 | 0.1 (≈ 0.182 µM) |
